Assay [1] deals with T1, Recombinant human GST-tagged Kat6b protein (431-end) (Homo sapiens, UniProt Q8WYB5).
T1 construct: Kat6b protein (431-end, N-terminal GST-tag); GST (N)
Briefly: Kat6b activity assay (TR-FRET, acetylation of Histone-H4-derived peptide). It counts as biochemical. The settings on record: 30 mins at 22° C., 500 nM H4 peptide, 600 nM Acetyl Coenzyme A, read-out: KAT6B activity assay IC50 [mol/l] (arithmetic mean). The method, then:
Kat6b inhibitory activities of the compounds described in the present invention were quantified using a Fluorescence Resonance Energy Transfer (TR-FRET) assay which measures acetylation of a synthetic, biotinylated Histone-H4-derived peptide by the enzyme.
In this case 50 nl DMSO were used instead of compounds. […] IC50 values were determined by regression analysis based on a 4 parameter equation (minimum, maximum, ICM, Hill; Y=Max+(Min−Max)/(1+(X/ICso) Hill) using the Screener Software (Genedata).
In general terms: TR-FRET usually uses a lanthanide donor and a delayed reading to cut background.

For a further assay, the system named is ZR-75-1 cells. Kind of assay: ZR-75-1 proliferation assay. It counts as cell-based. As to conditions: Homo sapiens, ZR-75-1, 144 h, Alamar Blue, read-out: ZR75-1 proliferation assay, EC50 [M] (arithmetic mean). Put shortly: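 ZR-75-1 cells (focal KAT6A amplification), 3000 per well in RPMI 1640 with 2.5% FBS, were exposed to compound in triplicate for 144 h at 37 °C, 5% CO2. Viability read by Alamar Blue fluorescence at 590 nm after 2 h.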
For orientation: The colour change of resazurin is a common sign of viable cells or microbes.

Assay [2] addresses T2, Recombinant human His-tagged Kat6a protein (amino acids 194-810) (Homo sapiens, UniProt Q92794).
T2 construct: Kat6a protein (amino acids 194-810); His
Briefly: Kat6a activity assay (TR-FRET, acetylation of Histone-H4-derived peptide). As to conditions: 60 mins at 22° C., 220 nM H4 peptide, 600 nM Acetyl Coenzyme A, read-out: KAT6A - DPF/HAT domain IC50 [mol/l] (arithmetic mean). It counts as biochemical.

The subject of a further assay is MDA-MB-436 cells. Briefly: MDA-MB-436 proliferation assay (negative control cell line). It counts as cell-based. The settings on record: Homo sapiens, 144 h, Alamar Blue, read-out: MDA-MB-436 proliferation assay, EC50 [M] (arithmetic mean). In outline: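 MDA-MB-436 cells (KAT6A deletion, low KAT6A protein) seeded at 3000 cells/well in DMEM/Ham's F12 with 2.5% FBS, treated in triplicate for 144 h at 37° C, 5% CO2. Viability read by Alamar Blue fluorescence at 590 nm after 2 h.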

Assay [3] has as its system ESR1 transcription in MVLN cells. Briefly: MVLN reporter assay: repression of ESR1 transcription (luciferase signal). The settings on record: Homo sapiens, MVLN, 24 h, luciferase signal after 24 h, read-out: MVLN reporter assay, IC50 [M] (arithmetic mean). It counts as cell-based. In outline:
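MVLN cells, expressing ER and stably carrying a vitellogenin A2 ERE-luciferase reporter, treated with compound in duplicate; luciferase read after 24 h with Steadylite plus. Cell density checked in parallel by Alamar Blue fluorescence (530/590 nm, 2 h) before the luciferase read.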
(In a reporter assay the amount or activity of a reporter protein is the signal.)

The test system of the next assay is LCLC97TM1. Briefly: LCLC97TM1 proliferation assay. It counts as cell-based. The settings on record: Homo sapiens, LCLC-97TM1, LCLC97TM1; read-out: LCLC97TM1 proliferation assay; EC50 [M] (arithmetic mean).

Each structure is given as a SMILES string.

T1 sequence (Q8WYB5 431-2073): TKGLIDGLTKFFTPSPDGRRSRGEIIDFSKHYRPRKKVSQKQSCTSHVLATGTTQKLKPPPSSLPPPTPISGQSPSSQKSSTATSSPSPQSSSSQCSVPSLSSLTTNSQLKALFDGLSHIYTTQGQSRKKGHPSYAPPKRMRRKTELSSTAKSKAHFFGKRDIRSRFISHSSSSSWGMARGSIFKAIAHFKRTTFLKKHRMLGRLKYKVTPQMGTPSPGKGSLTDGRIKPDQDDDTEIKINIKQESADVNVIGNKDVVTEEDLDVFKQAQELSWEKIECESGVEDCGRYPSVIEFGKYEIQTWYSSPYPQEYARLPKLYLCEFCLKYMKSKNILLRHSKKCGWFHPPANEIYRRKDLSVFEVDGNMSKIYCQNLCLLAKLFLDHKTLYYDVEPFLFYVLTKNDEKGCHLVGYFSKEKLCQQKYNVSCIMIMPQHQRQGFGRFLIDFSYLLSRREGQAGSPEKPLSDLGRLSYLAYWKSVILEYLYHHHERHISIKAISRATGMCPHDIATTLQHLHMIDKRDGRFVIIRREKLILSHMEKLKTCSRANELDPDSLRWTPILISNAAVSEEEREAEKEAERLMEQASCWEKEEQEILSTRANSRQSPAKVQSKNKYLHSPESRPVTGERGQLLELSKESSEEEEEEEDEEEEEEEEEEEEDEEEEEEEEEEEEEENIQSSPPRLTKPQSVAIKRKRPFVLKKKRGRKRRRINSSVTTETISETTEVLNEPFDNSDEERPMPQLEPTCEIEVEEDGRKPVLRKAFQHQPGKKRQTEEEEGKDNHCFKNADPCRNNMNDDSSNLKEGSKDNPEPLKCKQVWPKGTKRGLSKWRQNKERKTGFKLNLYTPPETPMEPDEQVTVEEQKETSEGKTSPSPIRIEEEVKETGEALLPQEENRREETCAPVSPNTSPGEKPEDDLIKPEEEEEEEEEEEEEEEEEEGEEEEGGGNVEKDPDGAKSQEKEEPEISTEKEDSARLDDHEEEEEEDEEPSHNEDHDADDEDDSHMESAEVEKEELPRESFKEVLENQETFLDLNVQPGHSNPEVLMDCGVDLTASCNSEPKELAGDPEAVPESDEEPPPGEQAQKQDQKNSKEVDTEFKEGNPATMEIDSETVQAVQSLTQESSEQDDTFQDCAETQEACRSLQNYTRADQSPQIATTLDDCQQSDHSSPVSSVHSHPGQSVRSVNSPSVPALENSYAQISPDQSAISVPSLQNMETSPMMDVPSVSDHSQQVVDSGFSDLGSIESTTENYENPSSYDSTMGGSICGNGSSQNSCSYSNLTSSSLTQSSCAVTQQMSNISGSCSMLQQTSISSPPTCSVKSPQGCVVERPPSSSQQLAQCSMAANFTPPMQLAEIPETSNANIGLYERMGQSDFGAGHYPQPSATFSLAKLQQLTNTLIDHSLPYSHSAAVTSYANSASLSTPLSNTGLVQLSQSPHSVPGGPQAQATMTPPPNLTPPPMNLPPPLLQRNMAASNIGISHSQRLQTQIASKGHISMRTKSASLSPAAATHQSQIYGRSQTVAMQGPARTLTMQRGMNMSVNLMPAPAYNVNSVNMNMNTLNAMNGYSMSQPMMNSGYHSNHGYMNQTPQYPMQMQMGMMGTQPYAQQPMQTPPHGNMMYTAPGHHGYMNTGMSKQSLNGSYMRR
T2 sequence (Q92794 194-810): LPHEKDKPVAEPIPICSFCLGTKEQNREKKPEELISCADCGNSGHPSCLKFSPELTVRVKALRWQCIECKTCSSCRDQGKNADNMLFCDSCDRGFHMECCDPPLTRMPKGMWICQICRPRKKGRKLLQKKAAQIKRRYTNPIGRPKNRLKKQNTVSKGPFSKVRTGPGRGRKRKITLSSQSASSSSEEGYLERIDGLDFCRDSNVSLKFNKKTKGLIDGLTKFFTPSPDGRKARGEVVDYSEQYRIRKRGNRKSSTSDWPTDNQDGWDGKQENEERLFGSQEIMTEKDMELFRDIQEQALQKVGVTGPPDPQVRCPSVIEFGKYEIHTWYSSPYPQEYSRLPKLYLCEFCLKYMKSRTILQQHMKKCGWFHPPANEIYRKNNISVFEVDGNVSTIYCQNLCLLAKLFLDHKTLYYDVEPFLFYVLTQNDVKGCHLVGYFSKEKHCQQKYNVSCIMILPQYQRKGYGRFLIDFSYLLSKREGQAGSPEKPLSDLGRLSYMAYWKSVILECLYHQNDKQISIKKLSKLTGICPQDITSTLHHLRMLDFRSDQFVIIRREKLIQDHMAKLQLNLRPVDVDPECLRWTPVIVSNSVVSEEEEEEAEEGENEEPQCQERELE

In the case of `COc1ccc(-c2cn(C)nc2C)cc1S(=O)(=O)NC(=O)c1cc2c(F)cc(N3CCC3)cc2o1` [Example 195, 6-(Azetidin-1-yl)-N-[5-(1,3-dimethyl-1H-pyrazol-4-yl)-2-methoxybenzene-1-sulfonyl]-4-fluoro-1-benzofuran-2-carboxamide], the IC50 in assay [1] is 20.1 nM; in assay [2], 5.07 nM; in assay [3] it was 1.11e-07 M. For the same compound, the EC50 was 1.99e-07 M with ZR-75-1 cells, over 2e-05 M in the assay with MDA-MB-436 cells and 8.37e-07 M in the assay with LCLC97TM1.

For the compound `CC(C)c1ccc(OCc2ccccc2)c(S(=O)(=O)NC(=O)c2cc3c(F)cc(N4CCC4)cc3o2)c1` [Example 213, 6-(azetidin-1-yl)-N-(2-benzyloxy-5-isopropyl-phenyl)sulfonyl-4-fluoro-benzofuran-2-carboxamide], the IC50 is 14.7 nM in assay [1], 6.18 nM in assay [2] and 3.31e-08 M in assay [3]. In addition, the figures for the EC50 in the assay with ZR-75-1 cells, in the assay with MDA-MB-436 cells and in the assay on LCLC97TM1 were 1.17e-07 M, 1.41e-05 M and 1.52e-07 M, respectively.

For `CC(C)(C)c1ccc(OC2CC2)c(S(=O)(=O)NC(=O)c2cc3c(F)cc(N4CCC4)cc3o2)c1` [Example 224, 6-(Azetidin-1-yl)-N-[(5-(tert-butyl)-2-cyclopropoxyphenyl)sulfonyl]-4-fluorobenzofuran-2-carboxamide], the figures for the IC50 in assay [1], in assay [2] and in assay [3] were 9.82 nM, 3.72 nM and 2.76e-08 M, respectively. Moreover, the EC50 with ZR-75-1 cells came out at 7.5e-08 M; in the assay on MDA-MB-436 cells it was 1.77e-05 M; in the assay on LCLC97TM1, 1.14e-07 M.

In the case of `CC(C)(C)c1ccc(OCc2ccccc2)c(S(=O)(=O)NC(=O)c2cc3c(F)cc(N4CCC4)cc3o2)c1` [Example 225, 6-(Azetidin-1-yl)-N-[(2-(benzyloxy)-5-(tert-butyl)phenyl]sulfonyl)-4-fluorobenzofuran-2-carboxamide], the IC50 in assay [1] is 9.82 nM; in assay [2], 3.72 nM; in assay [3], 2.76e-08 M. Moreover, the EC50 in the assay with ZR-75-1 cells is 7.5e-08 M; in the assay on MDA-MB-436 cells it was 1.77e-05 M; in the assay on LCLC97TM1, 1.14e-07 M.

Consider `CC(C)(C)c1ccc(OC2CCC2)c(S(=O)(=O)NC(=O)c2cc3c(F)cc(N4CCC4)cc3o2)c1` [Example 228, 6-(Azetidin-1-yl)-N-[(5-(tert-butyl)-2-cyclobutoxyphenyl)sulfonyl]-4-fluorobenzofuran-2-carboxamide], for which the IC50 in assay [1] was found to be 13.4 nM; in assay [2] it was 2.57 nM; in assay [3], 2.39e-08 M. For the same compound, the EC50 was 1.16e-07 M with ZR-75-1 cells, over 2e-05 M in the assay with MDA-MB-436 cells and 1.67e-07 M in the assay with LCLC97TM1.

Regarding `CC(C)Oc1ccc(C(C)(C)C)cc1S(=O)(=O)NC(=O)c1cc2c(F)cc(N3CCC3)cc2o1` [Example 229, 6-(Azetidin-1-yl)-N-[(5-(tert-butyl)-2-isopropoxyphenyl)sulfonyl]-4-fluorobenzofuran-2-carboxamide], the figures for the IC50 in assay [1], in assay [2] and in assay [3] were 27.6 nM, 4.79 nM and 3.83e-08 M, respectively. Besides, the values for the EC50 in the assay with ZR-75-1 cells, with MDA-MB-436 cells and in the assay on LCLC97TM1 were 2.18e-07 M, over 2e-05 M and 1.8e-07 M, respectively.

Source of the values: patent publication US20240279207A1, “SUBSTITUTED ACYL SULFONAMIDES FOR TREATING CANCER” (The Broad Institute, Inc., priority 2020, published 2024).
